By kcat is commonly meant the maximal rate divided by the concentration of active sites. What is called Kd is a measure of binding affinity in units of concentration. For orientation: IC50 means the concentration that inhibits the measured activity by half.

Data on 7 compounds can be found in US8114847B2, “Selective inhibitors of translesion DNA replication” (Case Western Reserve University, priority 2005, dated 2012).

Test [1] concerns the target T1, gp43exo− (bacteriophage T4 DNA polymerase) (Enterobacteria phage T4, UniProt P04415, D219A). In words: biochemical. The class given is biochemical.
Test [2] has as its target T1, gp43exo− (bacteriophage T4 DNA polymerase). As to the kind of experiment: biochemical. The conditions noted are these: for kpol: pseudo-first-order conditions.
The target is the same in test [3]. The class given is biochemical. The conditions noted are these: 50 μM dXTP 30 s, then 1000 μM dGTP.
Test [4] has the same target. As to the kind of experiment: biochemical. The conditions noted are these: for inhibition of replication beyond an abasic site: 500 μM dNTPs. The class given is biochemical.
The target is the same in test [5]. The class given is biochemical. The conditions noted are these: 500 μM analogue; 10 μM dNTPs; unmodified 13/20-mer.
The target of test [6] is T2, gp43 exo+ (bacteriophage T4 DNA polymerase) (Enterobacteria phage T4, UniProt P04415).
T2 construct: made in house
T2 sequence (P04415 1-898): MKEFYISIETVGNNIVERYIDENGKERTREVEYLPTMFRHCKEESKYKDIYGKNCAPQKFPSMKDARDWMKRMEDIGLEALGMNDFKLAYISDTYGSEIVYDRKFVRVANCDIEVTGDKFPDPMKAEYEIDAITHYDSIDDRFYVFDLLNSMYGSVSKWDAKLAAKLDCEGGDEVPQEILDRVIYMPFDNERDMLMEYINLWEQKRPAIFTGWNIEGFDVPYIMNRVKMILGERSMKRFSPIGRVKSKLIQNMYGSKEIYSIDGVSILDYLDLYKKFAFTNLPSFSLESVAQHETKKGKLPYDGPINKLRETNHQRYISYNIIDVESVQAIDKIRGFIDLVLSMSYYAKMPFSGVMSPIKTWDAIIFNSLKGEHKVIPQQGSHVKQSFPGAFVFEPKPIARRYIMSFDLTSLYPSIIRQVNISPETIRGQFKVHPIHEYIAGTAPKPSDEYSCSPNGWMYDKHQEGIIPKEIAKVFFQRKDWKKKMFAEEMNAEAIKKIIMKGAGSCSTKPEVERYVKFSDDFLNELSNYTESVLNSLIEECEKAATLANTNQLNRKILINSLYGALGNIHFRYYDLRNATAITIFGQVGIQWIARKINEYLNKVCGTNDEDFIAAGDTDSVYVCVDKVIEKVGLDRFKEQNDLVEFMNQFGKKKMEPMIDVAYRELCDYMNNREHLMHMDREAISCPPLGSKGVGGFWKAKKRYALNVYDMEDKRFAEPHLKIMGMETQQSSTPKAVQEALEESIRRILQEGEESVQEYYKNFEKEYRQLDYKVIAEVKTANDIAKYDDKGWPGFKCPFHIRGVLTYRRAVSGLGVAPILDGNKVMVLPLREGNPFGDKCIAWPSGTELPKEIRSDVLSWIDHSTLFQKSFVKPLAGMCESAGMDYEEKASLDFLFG
As to the kind of experiment: Idle turnover measurements with KINSIM simulation. The class given is biochemical. On the procedure:
DNA (13/20SP-mer or 13/20T-mer; 250 nM) was first preincubated with variable concentrations of 5-NITP (20-200 μM) or 5-PhITP (10-200 μM) in the presence of 30 μM dATP. Due to the nature of the DNA substrate (FIG. 1B), the insertion of dAMP opposite T at position 13 in the template maintains a usable primer template for the insertion of the nonnatural nucleotide opposite the abasic lesion (position 14). In all cases, the reaction was initiated through the addition of 1000 nM DNA gp43 exo^+. Five microliter aliquots of the reaction were quenched into tubes containing 5 μL of 200 mM EDTA at times ranging from 5 to 600 s. The quenched samples were processed as described above and product formation was analyzed using established protocols.
Simulations modeling the observed kinetic time courses for nucleotide insertion and excision were performed by mathematical analyses using KINSIM. A simplified mechanism depicted in FIG. 11 was employed that accounts for the kinetic parameters of interest. These minimally include KD values for each nucleotide, kpol values for their insertion, and kexo, which represents the hydrolytic rate constant. Both the starting reactant concentrations and rate constants were supplied for each step of the mechanism. In all cases, the rate constants were based upon either experimentally determined rate constants or published literature values. The simulated curves were then compared to those experimentally derived to judge how accurately each set of rate constants fit the experimental data. Adjustments to the rate constants were then made until the simulated time courses were nearly identical to the experimental time courses.
Idle turnover is a process in which the DNA polymerase incorporates a dNTP and then excises the inserted dNMP in the absence of the next required nucleotide triphosphate (FIG. 11). This activity provides a more accurate representation of in vivo conditions in which the polymerase should be bound and stalled at the sight of DNA damage. Idle turnover was quantified using a modified gel electrophoresis protocol that monitors the amount of extension (13-mer to 14-mer) and subsequent excision (14-mer to 13-mer) of the DNA as a function of time. All experiments were performed using single turnover reaction conditions to ensure that all DNA was bound with polymerase during the course of the reaction. Under these conditions, the rates in product formation reflect the kinetics of insertion and excision rather than enzyme dissociation from the mispair. In each experiment, the concentration of nonnatural nucleotide was varied from 20 to 200 μM. In addition, a low concentration of 30 μM dATP was used to allow for correct dNMP insertion at position 13-mer, which prevents complete degradation of DNA substrate.
Since single turnover reaction conditions were employed, kinetic steps reflecting enzyme dissociation and rebinding to product DNA are assumed to be negligible. Thus, the rate and amount of 14-mer produced are dependent upon four interrelated parameters. These include the kinetic dissociation constant (KD) for dXTP opposite the lesion (DNAn) (step 2), the rate constant for DNA extension (kpol) (step 3), the rate constant of exonuclease degradation (kexo) (step 5), and the kinetic dissociation constant (KD′) for dXTP opposite the next templating position (DNAn+1) (step 6). Although kpol is a complex function of kinetic rate constants, this value was simplified to combine the kinetic steps encompassing the conformational change prior to phosphoryl transfer, phosphoryl transfer, and the conformational change after phosphoryl transfer. Furthermore, translocation of the enzyme and pyrophosphate release (step 4) are assumed to be rapid.

Test [7] concerns bacteriophage T4 polymerase. As to the kind of experiment: Calculated discrimination, toxicity index and therapeutic index. The class given is biochemical.
Test [8] deals with T1, gp43exo− (bacteriophage T4 DNA polymerase). The conditions noted are these: cited from earlier work.
Target sequence in this assay (P04415 whole entry D219A, looked up): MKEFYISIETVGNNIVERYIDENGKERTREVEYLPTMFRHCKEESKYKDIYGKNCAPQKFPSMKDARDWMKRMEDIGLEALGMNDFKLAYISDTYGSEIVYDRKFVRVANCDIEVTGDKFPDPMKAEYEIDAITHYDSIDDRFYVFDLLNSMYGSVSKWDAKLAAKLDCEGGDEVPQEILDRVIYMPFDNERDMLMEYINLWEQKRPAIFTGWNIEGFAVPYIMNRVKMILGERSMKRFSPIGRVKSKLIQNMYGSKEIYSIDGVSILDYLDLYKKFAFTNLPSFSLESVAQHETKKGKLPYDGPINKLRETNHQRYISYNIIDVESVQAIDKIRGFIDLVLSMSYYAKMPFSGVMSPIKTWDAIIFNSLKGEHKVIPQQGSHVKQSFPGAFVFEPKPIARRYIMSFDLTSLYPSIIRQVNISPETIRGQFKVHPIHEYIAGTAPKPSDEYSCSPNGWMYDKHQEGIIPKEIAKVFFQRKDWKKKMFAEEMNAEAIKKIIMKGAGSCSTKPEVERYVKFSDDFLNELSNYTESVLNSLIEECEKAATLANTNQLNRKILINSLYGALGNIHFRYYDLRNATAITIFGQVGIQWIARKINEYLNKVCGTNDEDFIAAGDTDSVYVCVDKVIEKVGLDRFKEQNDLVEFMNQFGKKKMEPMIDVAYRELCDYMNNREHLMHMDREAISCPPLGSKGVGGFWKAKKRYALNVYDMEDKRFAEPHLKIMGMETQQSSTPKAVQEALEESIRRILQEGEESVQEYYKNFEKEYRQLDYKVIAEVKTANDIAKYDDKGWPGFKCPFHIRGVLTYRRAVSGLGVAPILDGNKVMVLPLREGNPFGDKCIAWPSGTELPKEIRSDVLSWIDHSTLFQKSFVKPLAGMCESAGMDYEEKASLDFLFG
For test [9] the target is unchanged. The class given is biochemical.
Target sequence in this assay (P04415 whole entry D219A, looked up): as above
Test [10] has the same target. Conditions: cited from earlier work; for kpol / Kd: opposite an abasic site, previously determined values (Table 7 footnotes d, e, f not given); for Kd: read-out: KD.
Target sequence in this assay (P04415 whole entry D219A, looked up): as above
[11] abbreviates: idle turnover opposite an abasic site, computer simulation fit of time courses.
[12] abbreviates: (kpol dNTP/kexo dXTP)(dXTP/dNTP)/(4D).

SMILES strings stand for the structures. Where “and” joins values, the source holds several entries; their conditions need not be identical. Identical values can stand only once. Like-named read-outs stand apart in the source and are kept apart here.

In the case of `O=P(O)(O)OP(=O)(O)OP(=O)(O)OC[C@H]1O[C@@H](n2ccc3cc(-c4ccccc4)ccc32)C[C@@H]1O` [5-PhITP, 5-Phenyl-indole-2′-Deoxyribofuranoside 5′-Triphosphate], in [1], the “amplitude of the burst phase” value stood at 75 nM; the burst amplitude is 240 ± 6 nM and 220 ± 3 nM and 220 nM; the kcat amounted to 2.2 s⁻¹; the kobs was 37.4 s⁻¹ and 38.4 s⁻¹ and ~38 s⁻¹ and 38.4 ± 2.1 s⁻¹ and 37.4 ± 1.4 s⁻¹. In addition, in test [1], the “kobs calculated from Michaelis-Menten equation” value was 14 s⁻¹; the kpol turned out to be 53 ± 4 s⁻¹; the kpol/KD stood at 3.8e+06 M⁻¹ s⁻¹; the “observed rate constant of the burst phase (kobs)” value was 9.1 ± 2.1 s⁻¹ and 9 s⁻¹. The same compound had an equilibrium dissociation constant (Kd) in test [1] (KD) of around 10 µM. In [2] (KD), the Kd is around 25 µM. In [2] (Template A), the kpol/KD is recorded as 4.0 × 10^3 M^−1S^−1 and the kpol was determined as 0.12 ± 0.01 s⁻¹. In [2] (Template C), the kpol/KD is recorded as 6.8 × 10^3 M^−1S^−1 and the kpol stood at 0.19 ± 0.02 s⁻¹. For the same compound, in test [2] (Template G), the kpol/KD was 21.7 × 10^3 M^−1S^−1 and the kpol amounted to 0.26 ± 0.02 s⁻¹. In [2] (Template T), the kpol/KD is recorded as 6.4 × 10^3 M^−1S^−1 and the kpol worked out at 0.16 ± 0.01 s⁻¹. The “extension beyond the mispair formed opposite an abasic site” value in test [3] is listed as “identical results are obtained”. For the same compound, in test [4] (20 μM analogue), the “inhibition of replication beyond an abasic site” value was “Identical results are obtained”. In addition, the IC50 in test [4] (IC50) is 10 µM and ~10 µM. For the same compound, the “inhibition of normal DNA synthesis” value in test [5] is “Nearly identical results are obtained”. Moreover, in test [6] (100 μM nucleotide, compared with 100 μM 5-NITP), the “stability of incorporation opposite the abasic site (idle turnover)” value was “more stably incorporated opposite the abasic site”. In test [6] (setting [11]), this compound yielded a Kd of 20 ± 5 µM, a kexo of 1.0 ± 0.1 S^−1 and a kpol of 50 ± 10 S^−1. Further, in test [7] (setting [12]), the “toxicity index (abasic DNA)” value is on record as around 33 and the “toxicity index (unmodified DNA)” value was 0.01-0.05. For the same compound, the “discrimination (unmodified DNA)” value in test [7] (ratio of catalytic efficiencies opposite templating nucleobase) was 460-2500. Further, the “discrimination (abasic DNA)” value in test [7] (ratio of catalytic efficiencies, dATP versus dXTP) was 11.4×10^−5 and 11.4 × 10^−4.

For the compound `O=P(O)(O)OP(=O)(O)OP(=O)(O)OC[C@H]1O[C@@H](n2ccc3ccccc32)C[C@@H]1O` [IndTP, reference compound], in test [4] (20 μM analogue), the “inhibition of replication beyond an abasic site” value was “inhibition is not observed”. The “inhibition of replication beyond an abasic site” value in test [4] (350 μM analogue) was “no effect on the kinetics of elongation”. The “inhibition of normal DNA synthesis” value in test [5] was “do not inhibit normal DNA synthesis”. Also, in [8], the kpol was 0.28 ± 0.07 s⁻¹ and the kpol/KD was 1900 M⁻¹ s⁻¹. Also, in test [8] (read-out: KD), the Kd is 145 ± 10 µM.

On to `Nc1ccc2c(ccn2[C@H]2C[C@H](O)[C@@H](COP(=O)(O)OP(=O)(O)OP(=O)(O)O)O2)c1` [5-AITP, 5-Amino-Indole-2′-Deoxyribofuranoside 5″-Triphosphate], for which the kpol in test [1] was 0.17 ± 0.01 s⁻¹; in test [2] (Template A) it was 0.21 ± 0.01 s⁻¹; in test [2] (Template T) it was 0.071 ± 0.003 s⁻¹. Moreover, the kpol/KD was 700 M⁻¹ s⁻¹ in test [1], 0.46 × 10^3 M^−1S^−1 in test [2] (Template A) and 0.53 × 10^3 M^−1S^−1 in test [2] (Template T). In addition, the results for the “inhibition of replication beyond an abasic site” value in test [4] (20 μM analogue) and in [4] (350 μM analogue) were “inhibition is not observed” and “no effect on the kinetics of elongation”, respectively. The “inhibition of normal DNA synthesis” value in test [5] is given as “do not inhibit normal DNA synthesis”.

`Nc1nc2c(ncn2[C@H]2C[C@H](O)[C@@H](COP(=O)(O)OP(=O)(O)OP(=O)(O)O)O2)c(=O)[nH]1` [dGTP]: in test [9], the kext is 0.005 ± 0.001 s⁻¹. Besides, in [10], the kpol was 0.023 ± 0.005 s⁻¹ and the Kd was 130 µM.

`O=P(O)(O)OP(=O)(O)OP(=O)(O)OC[C@H]1O[C@@H](n2ccc3cc(C4=CCCCC4)ccc32)C[C@@H]1O` [5-CE-ITP]: in test [10], the dissociation constant (Kd) is around 10 µM.

The compound `Nc1ncnc2c1ncn2[C@H]1C[C@H](O)[C@@H](COP(=O)(O)OP(=O)(O)OP(=O)(O)O)O1` [dATP] showed a kext in test [9] of 0.25 ± 0.01 s⁻¹. In addition, in test [8], the kpol entry is given as “≈ 0.15 s^−1” and the kpol/KD was 4300 M⁻¹ s⁻¹. Besides, in test [10], the “overall catalytic efficiency opposite an abasic site greater than dGTP” value is around 35 fold; the kpol is 0.15 s⁻¹ and 0.15 ± 0.01 s⁻¹; the dissociation constant Kd was 35 µM.

In the case of `O=P(O)(O)OP(=O)(O)OP(=O)(O)OC[C@H]1O[C@@H](n2ccc3cc(F)ccc32)C[C@@H]1O` [5-FITP, 5-Fluoro-indole-2′-deoxyribofuranoside 5′-Triphosphate], the kpol is 0.30 ± 0.03 s⁻¹ in test [1], 0.11 ± 0.06 s⁻¹ in test [2] (Template A) and 0.040 ± 0.003 s⁻¹ in [2] (Template T). Besides, the kpol/KD in [1] was 2000 M⁻¹ s⁻¹; in test [2] (Template A), 0.6 × 10^3 M^−1S^−1; in [2] (Template T), 0.29 × 10^3 M^−1S^−1. The “inhibition of replication beyond an abasic site” value in [4] (20 μM analogue) was “inhibition is not observed”; in test [4] (350 μM analogue), “no effect on the kinetics of elongation”. Besides, the “inhibition of normal DNA synthesis” value in test [5] was “do not inhibit normal DNA synthesis”.
